± gives the expanded uncertainty stated by the source.
Conditions: Liquid

CC(C)CC(C)(C)C [2,2,4-trimethylpentane]
vapor or sublimation pressure (372.35 K): 101.33 ± 3 kPa

CCO [ethanol]
vapor or sublimation pressure (351.45 K): 101.33 ± 3 kPa

CCCCCC [hexane]
vapor or sublimation pressure (341.85 K): 101.33 ± 3 kPa

Cc1ccccc1 [toluene]
vapor or sublimation pressure (383.75 K): 101.33 ± 3 kPa
